Where two headings read alike, the source gives them in different places.
Assays:
[1] = system: MCF-7/ADR cells; assay: In vitro cytotoxicity, colony formation by crystal violet assay, MCF-7/ADR
Method: (§1) The term IC50 as used herein refers to the concentration of drug which inhibits cell growth by 50%, i.e., 50% of cells are viable at the IC50 concentration relative to a no-drug control.
(§2) Cells were incubated with drug for 3 h in RPMI (Roswell Park Memorial Institute) 1640 media containing 10% fetal bovine serum and 1% DMSO. Plates, were developed using the crystal violet assay. […] In all cases percent survival was determined by the extent of colony formation six days after drug treatment.
(§3) All tissue culture materials were obtained from Gibco Life Technologies (Grand Island, N.Y.) unless otherwise stated. MCF-7 breast cancer cells were obtained from American Type Culture Collection (Rockville, Md.). […] Both cell lines were maintained in vitro by serial culture in phenol red-free RPMI Media 1640 supplemented with 10% fetal bovine serum (Gemini Bio-Products, Calbasas, Calif.), L-glutamine (2 mM), HEPES buffer (10 mM), penicillin (100 units/mL), and streptomycin (100 μg/mL). […] Cells were maintained at 37° C. in a humidified atmosphere of 5% CO2 and 95% air.
(§4) Cells were dissociated with trypsin-EDTA, counted, and suspended in growth media to a concentration of 5×10^3 cells/mL. Cell suspensions were dispensed in 200 μL aliquots into 96-well tissue culture plates. Plates were then incubated for 24 h at 37° C. in a humidified atmosphere of 5% CO2 and 95% air. The media was replaced with 180 μL of growth media prior to addition of the cytotoxic agents.
(§5) Concentrations were then corrected by measuring the solution absorbance at 480 nm (ε=11,500/mole anthracycline). The solutions were then serially diluted in DMSO to give a series of 100× working concentration solutions. For each concentration, the 100× solution was diluted 1:10 in serum-free RPMI Media 1640. 20 μL of the resulting […] solution was immediately added to the appropriate lane. Additionally, one lane was treated with 20 μL of 10% DMSO in serum-free RPMI (no drug) and one lane replaced with 200 μL of 1.5 M Tris buffer (no cells). The cells were incubated at 37° C. for 3 h. The drug solutions were removed and 200 μL of fresh growth media was added to each well.
(§6) The extent of colony formation was determined by use of a crystal violet staining assay (Gilles, R. J. et al. (1986), “Determination of cell number in monolayer cultures,” Anal. Biochem. 159:109-113; Reile, H. et al. (1990), “Computerized determination of growth kinetic curves and doubling times from cells in microcultures,” Anal. Biochem. 187:262-267). […] The cells were then stained with 75 μL of 0.1% crystal violet in deionized water for 30 min. […] The plates were blotted dry and 200 μL of 70% ethanol in water was added to each well to solublize the dye. The plates were stored at 4° C. until solubilization was complete (about 4 h). The optical density of each well was measured on an ELISA plate reader at 588 nm. Relative colony sizes were determined by comparison of the drug treated lanes to the control lanes.
(§7) MCF-7 breast cancer cells were obtained from American Type Culture Collection (Rockville, Md.). MCF-7/ADR adriamycin resistant breast cancer cells were a gift of Dr. William W. Wells (Michigan State University). Both cell lines were maintained in vitro by serial culture in phenol red-free RPMI Media 1640 supplemented with 10% fetal bovine serum (Gemini Bio-Products, Calbasas, Calif.), L-glutamine (2 mM), HEPES buffer ([…]), penicillin (100 units/mL), and streptomycin (100 μg/mL). […] Cells were maintained at 37° C. in a humidified atmosphere of 5% CO2 and 95% air.
These were then diluted 10× with autoclaved Millipore water.

[2] = system: DU-145; assay: Prostate cancer cell cytotoxicity, crystal violet assay, DU-145; assay type: cell-based, human; conditions: Homo sapiens
Method: (§8) Toxicity to the three prostate cancer cell lines, LNCaP, DU-145, and PC-3 were measured in two different media, RPMI-1640 and DMEM (Dulbecco's Modified Eagle Medium), both supplemented with 10% fetal bovine serum.
(§9) Cell lines were maintained in vitro in RPMI 1640 media or DMEM, each supplemented with 10% fetal bovine serum, 2 mM L-glutamine, 10 mM HEPES buffer, penicillin (100 units/mL) and streptomycin (100 μg/mL).
(§10) Cells were dissociated with trypsin/EDTA, counted, and suspended in growth media (RPMI or DMEM) to a concentration of 5.6×10^3 cells/mL. Cell suspensions were dispensed in 180 μL aliquots into 96-well tissue culture plates. […] Each 100× solution was diluted 10× in growth media (RPMI or DMEM), and a 20 μL aliquot of the resulting 10× solution was immediately (<10s) added to-the appropriate lane. Additionally, one lane was treated with 20 μL of 10% DMSO in growth media (no drug) and one lane was treated with 200 μL of 1.5 M Tris buffer (no cells). The cells were incubated with the drugs for 3 h at 37° C. The drug solutions were then removed and replaced with 200 μL of fresh media. The cells were incubated for 4 days (7 days for PC-3 cells in DMEM) at 37° C. in a humidified atmosphere of 5% CO2 and 95% air. Cell survival was determined using a crystal violet assay as described earlier (Fenick, D. J. et al (1997) J. Med. Chem. 40: 2452-2461).

[3] = system: LNCaP; assay: Prostate cancer cell cytotoxicity, crystal violet assay, LNCaP; assay type: cell-based, human; conditions: Homo sapiens, LNCaP
Method: as §8, §9, §10

[4] = Hydrolysis in aqueous phosphate buffer, HPLC; assay type: physicochemical; conditions: serum; read-out: estimated half-life
Method: See Example 16. […] The DMSO was present to increase solubility.
Second, the kinetics of hydrolysis were measured in pH 6.0 phosphate buffer.
A 960 μL solution of pH 7.3 phosphate buffer was heated to 37° C. […] No change in the chromatography was observed if pH, 7.3 phosphate buffer was used as the eluent in place of pH 7.4 TEAA buffer.

[5] = system: MCF-7 cells; assay: In vitro cytotoxicity, colony formation by crystal violet assay, MCF-7
Method: as §1, §2, §3, §4, §5, §6, §7
1640 media containing 10% fetal bovine serum. The resulting 90% media/10% DMSO solutions (v/v) were incubated at 37° C. for 6h.

[6] = system: PC-3; assay: Prostate cancer cell cytotoxicity, crystal violet assay, PC-3; assay type: cell-based, human; conditions: Homo sapiens
Method: as §8, §9, §10

[7] = Stability in DMSO and DMSO/water, NMR or HPLC; assay type: physicochemical; conditions: HPLC
Method: Crystalline dimeric formaldehyde conjugate of daunorubicin (2.8 mg, 2.6 μmol) was dissolved in 500 μL of DMSO-d6 (stored over 3 A molecular sieves) and analyzed by 400 MHz, ^1H NMR. […] Upon addition of 25 μL of D2O to the 500 μL DMSO-d6 sample, the dimeric formaldehyde conjugate of daunorubicin reacted over a 24 h period to form an equilibrium mixture consisting of 67% dimeric formaldehyde conjugate of daunorubicin and 32% of an intermediate. Because of the complexity of the spectrum, a structure could not be assigned to the intermediate; however, the intermediate appeared to have an oxazolidine ring. Upon addition of 3 equiv of hydrochloric acid in 130 μL of deuterium oxide, hydrolysis to daunorubicin-HCl was complete. The hydrochloric acid solution was prepared by the addition of 10 μL of concentrated HCl to 990 μL of D2O. The formaldehyde released from the dimeric formaldehyde conjugate of daunorubicin was detected as its hydrate. The final product was identified as daunorubicin by comparison of the NMR spectrum with that of a sample of daunorubicin plus 3 equiv of HCl. Further, the final product was isolated by removal of all volatile components under vacuum (0.1 Torr), and its ^1H NMR spectrum was identical to that of daunorubicin-HCl.
Amorphous dimeric formaldehyde conjugate of daunorubicin, when worked up in methylene chloride, was stable in DMSO for at least 4 days. It hydrolyzed with added D2O and hydrochloric acid in a manner similar to that of the crystalline material. When worked up in chloroform, amorphous dimeric formaldehyde conjugate of daunorubicin had less stability in DMSO, presumably due to traces of HCl from the chloroform.
A 1.3 mg sample of N-acetyl-3′-N,4′-O-methylenedaunorubicin was dissolved in […] of DMSO and analyzed over time by HPLC. […] At this time, […] of water was added to the DMSO/N-acetyl monomeric formaldehyde conjugate of daunorubicin solution, establishing a 50:50 DMSO:water mixture (v/v). In this solution, the N-acetyl-3′-N,4′-O-methylenedaunorubicin remained 91% intact (9% degradation to daunorubicin) over a period of 6 days, based upon the HPLC analysis.
A pH 6 triethyl ammonium acetate solution containing 13.1 μmol of epidoxorubicin-HCl and 6.6 mmol of […] was allowed to react in the dark at 25° C. for 30 min. The mixture was then extracted with chloroform with vigorous stirring for 20 min. The chloroform solution was dried over sodium sulfate and the chloroform removed by rotary evaporation. The resulting dry solid was redissolved in 1.0 mL of chloroform. To this was added 10 mL of n-hexane. After 2 days, a large amount of precipitate had formed, which was washed with 3×5 mL of n-hexane, followed by 4×1 mL of water.
The sample was maintained at ambient temperature for 2 h; after this period no change in the spectrum was observed. […] A stock 122 mM solution of HCl in D2O was prepared by adding concentrated hydrochloric acid to D2O. […] Complete hydrolysis occurred upon addition of ca. 2-3 equiv of HCl. A similar experiment was performed using HCl in H2O. […] This solution was incubated at 37° C. for 24 h prior to NMR analysis.

[8] = relative to the respective parent drug
[9] = 50:50 DMSO:water (v/v), over 6 days

| Molecule | IC50 ([1]; Homo sapiens, NCI/ADR-RES, read-out: IC50 Values, MCF-7-ADR) | fold higher cytotoxicity against MCF-7/ADR cells relative to the parent drug [1, 8] | IC50 ([2]; DU-145, read-out: IC50 Values, DU-145/DMEM) | IC50 ([2]; DU-145, read-out: IC50 Values, DU-145/RPMI-1640) | IC50 ([3]; read-out: IC50 Values, LNCaP/DMEM) | IC50 ([3]; read-out: IC50 Values, LNCaP/RPMI-1640) | half-life [4] | IC50 ([5]; Homo sapiens, MCF7, read-out: IC50 Values, MCF-7) | times more cytotoxic against the MCF-7 cell line than the parent drug ([5]; relative to daunorubicin and doxorubicin, respectively) | fold more toxic to MCF-7 cells than the parent drug [5, 8] | IC50 ([6]; PC-3, read-out: IC50 Values, PC-3/DMEM) | IC50 ([6]; PC-3, read-out: IC50 Values, PC-3/RPMI-1640) | degradation to daunorubicin [7, 9] | fraction remaining intact [7, 9] | degradation in DMSO solution ([7]; DMSO, after 2 h) |
| --- | --- | --- | --- | --- | --- | --- | --- | --- | --- | --- | --- | --- | --- | --- | --- |
| COc1cccc2c1C(=O)c1c(O)c3c(c(O)c1C2=O)CC(O)(C(=O)CO)CC3OC1CC2C(OCN2CN2CO[C@@H]3C(C)O[C@H](OC4CC(O)(C(=O)CO)Cc5c(O)c6c(c(O)c54)C(=O)c4c(OC)cccc4C6=O)CC32)C(C)O1 (stereo partly drawn) [DOXF, bis(3′-N-(3′-N,4′-O-methylenedoxorubicinyl))methane] | 0.5 nM | 10,000 fold | 1.5 nM | 2 nM | 0.5 nM | 0.5 nM | < 10 min | 1 nM | 150 times | 150 fold | 4.5 nM | 0.5 nM | – | – | – |
| N-acetyl-3′-N,4′-O-methylenedaunorubicin | – | – | – | – | – | – | – | – | – | – | – | – | 9% | 91% | no degradation |

From US6677309B1, “Anti-cancer drug aldehyde conjugate drugs with enhanced cytotoxicity compounds, compositions and methods” (University Technology Corporation, priority 1997, dated 2004)
